Data published in patent publication US10344019B2 (priority 2010, dated 2019).
Like-named read-outs stand apart in the source and are kept apart here.

What was measured:
Format in all cases: cell-based
[1] = system: HCV 1a RLuc cells (dicistronic genotype 1a H77 replicon, RLuc reporter); experiment: microbe, parasite or virus in culture; conditions: Hepatitis C virus, read-out: 1a
Method in brief: (§1)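 Replicons used: genotype 1b Con1, 1a H77, 2a JFH-1, and a 2a JFH-1 chimera with J6-strain NS5A (M31 present), all dicistronic.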

[2] = system: HCV 4a Rluc cells (NS5A chimeric genotype 1b Con1 replicon with genotype 4a NS5A gene); experiment: microbe, parasite or virus in culture; conditions: Hepatitis C virus, read-out: 4a
Method in brief: (§2)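 Replicon cells stably carrying the listed RLuc-encoding dicistronic replicons were seeded and treated with DMSO serial dilutions of compound (10 mM stocks) diluted into culture medium. After 72 h, cells were lysed and Renilla luciferase activity measured. EC50 was derived by non-linear regression.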

[3] = system: HCV 2b Rluc cells (NS5A chimeric genotype 2a JFH-1 replicon with genotype 2b MD2b-1 NS5A gene, M31 present); experiment: microbe, parasite or virus in culture; conditions: Hepatitis C virus, read-out: 2b
Method in brief: as §2

[4] = system: HCV 3a RLuc cells (NS5A chimeric genotype 1b Con1 replicon with consensus genotype 3a NS5A gene); experiment: microbe, parasite or virus in culture; conditions: Hepatitis C virus
Method in brief: as §2

[5] = system: HCV 1b RLuc cells (dicistronic genotype 1b Con1 replicon, RLuc reporter); experiment: microbe, parasite or virus in culture; conditions: Hepatitis C virus, read-out: 1b (nM)
Method in brief: as §1

[6] = system: HCV 2a JFH-1 Rluc cells (dicistronic genotype 2a JFH-1 replicon, RLuc reporter); experiment: microbe, parasite or virus in culture; conditions: Hepatitis C virus, read-out: 2a JFH
Method in brief: as §1

[7] = system: HCV 2a Rluc cells (NS5A chimeric genotype 2a JFH-1 replicon with genotype 2a J6 strain NS5A gene, M31 present); experiment: HCV replicon reporter assay, genotype 2a J6 (M31 present); conditions: Hepatitis C virus, read-out: 2a J6
Method in brief: as §1

[8] = genotype 1a H77 replicon, RLuc reporter
[9] = read-out: 3a, genotype 3a NS5A chimeric 1b Con1 replicon
[10] = genotype 2a JFH-1 replicon, RLuc reporter
[11] = read-out: 3a, genotype 3a replicon
[12] = read-out: 3a, genotype 3a NS5A chimeric replicon
[13] = genotype 2a JFH-1 RLuc replicon

Compound | EC50 [1, 8] [nM] | EC50 [2] [nM] | EC50 [3] [nM] | EC50 [4, 9] [nM] | EC50 [5] [nM] | EC50 [6, 10] [nM] | EC50 [7] [nM] | EC50 ([1]; genotype 1a replicon) [nM] | EC50 [4, 11] [nM] | EC50 ([6]; genotype 2a JFH-1 replicon) [nM] | EC50 ([1]; genotype 1a H77 RLuc replicon) [nM] | EC50 [4, 12] [nM] | EC50 [6, 13] [nM] | EC50 ([1]; 72 h, Table 1, genotype 1a H77 replicon, 72 hours) [nM] | EC50 ([4]; read-out: 3a, Table 1, genotype 3a NS5A chimeric replicon) [nM] | EC50 ([5]; 72 h) [nM] | EC50 ([6]; 72 h, Table 1, genotype 2a JFH-1 replicon, 72 hours) [nM]
COC(=O)N[C@H](C(=O)N1CCC[C@H]1c1ncc(-c2ccc3cc(-c4ccc5c(ccc6nc([C@@H]7CCCN7C(=O)[C@H](NC(=O)OC)c7ccccc7)[nH]c65)c4)ccc3c2)[nH]1)C(C)C [Example 169] | 0.001 to 0.999 | 0.001 to 0.99 | > 44 | 0.001 to 0.99 | 0.006 | 0.001 to 0.999 | > 44 |  |  |  |  |  |  |  |  |  | 
O=C(N[C@@H](C(=O)N1CCC[C@H]1c1ncc(-c2cc3c4c(c2)OCc2cc(-c5cnc([C@@H]6CCCN6C(=O)[C@H](NC(=O)C6CCC6)c6ccccc6)[nH]5)cc(c2-4)OC3)[nH]1)c1ccccc1)C1CCC1 [Example 449] |  | 0.001 to 0.99 | 0.001 to 0.999 |  | 0.139 |  | 0.001 to 0.999 | 0.001 to 0.999 | 0.001 to 0.99 | 0.001 to 0.999 |  |  |  |  |  |  | 
CCO[C@H]1C[C@@H](c2ncc(-c3ccc(-c4ccc5cc(-c6cnc([C@@H]7CCCN7C(=O)[C@@H](NC(=O)OC)C(C)C)[nH]6)ccc5c4)cc3)[nH]2)N(C(=O)[C@H](NC(=O)OC)c2ccccc2)C1 [Example 157] | 0.001 to 0.999 | 0.001 to 0.99 | 1 to 44 | 1 to 4.99 | 0.008 | 0.001 to 0.999 | > 44 |  |  |  |  |  |  |  |  |  | 
COC[C@H]1C[C@@H](c2ncc(-c3ccc(-c4ccc(-c5cnc([C@@H]6CC[C@H](C)N6C(=O)[C@@H](NC(=O)OC)C(C)C)[nH]5)cc4)cc3)[nH]2)N(C(=O)[C@H](NC(=O)C2CC2)c2ccccc2)C1 [Example 591] |  | 0.001 to 0.99 | 0.001 to 0.999 |  | 0.016 |  | 0.001 to 0.999 |  |  |  | 0.001 to 0.999 | 0.001 to 0.99 | 0.001 to 0.999 |  |  |  | 
COC(=O)N[C@H](C(=O)N1CCC[C@H]1c1ncc(-c2ccc3c4ccc(-c5cnc([C@@H]6CCCN6C(=O)[C@@H](NC(=O)OC)C(C)C)[nH]5)cc4c4ccccc4c3c2)[nH]1)C(C)C [Example 22] |  | 0.001 to 0.99 | > 44 |  |  |  | > 44 |  |  |  |  |  |  | 0.001 to 0.999 | 0.001 to 0.99 | 0.005 | 0.001 to 0.999
CCS[C@H]1C[C@@H](c2nc3ccc4cc(-c5ccc6c(ccc7nc([C@@H]8C[C@H](COC)CN8C(=O)[C@H](NC(=O)OC)c8ccccc8)[nH]c76)c5)ccc4c3[nH]2)N(C(=O)[C@@H](NC(=O)OC)C(C)C)C1 [Example 583] |  | 0.001 to 0.99 | 0.001 to 0.999 |  | 0.018 |  | 0.001 to 0.999 |  |  |  | 0.001 to 0.999 | 0.001 to 0.99 | 0.001 to 0.999 |  |  |  | 
COC(=O)N[C@@H](C(=O)N1[C@@H]2C[C@@H]2C[C@H]1c1ncc(-c2cc3c4c(c2)OCc2cc(-c5cnc([C@@H]6C[C@H]7C[C@H]7N6C(=O)[C@H](NC(=O)OC)c6ccccc6)[nH]5)cc(c2-4)OC3)[nH]1)c1ccccc1 [Example 496] |  | 0.001 to 0.99 | 0.001 to 0.999 |  | 0.011 |  | 0.001 to 0.999 |  |  |  | 0.001 to 0.999 | 0.001 to 0.99 | 0.001 to 0.999 |  |  |  | 
O=C(N[C@@H](C(=O)N1CCC[C@H]1c1ncc(-c2cc3c4c(c2)OCc2cc(-c5cnc([C@@H]6CCCN6C(=O)[C@H](NC(=O)c6cccnc6)c6ccccc6)[nH]5)cc(c2-4)OC3)[nH]1)c1ccccc1)c1cccnc1 [Example 469] |  | 0.001 to 0.99 | 0.001 to 0.999 |  | 0.752 |  | 0.001 to 0.999 | 0.001 to 0.999 | 0.001 to 0.99 | 0.001 to 0.999 |  |  |  |  |  |  | 
CC(C)CC(=O)N[C@@H](C(=O)N1CCC[C@H]1c1ncc(-c2cc3c4c(c2)OCc2cc(-c5cnc([C@@H]6CCCN6C(=O)[C@H](NC(=O)CC(C)C)c6ccccc6)[nH]5)cc(c2-4)OC3)[nH]1)c1ccccc1 [Example 481] |  | 0.001 to 0.99 | 0.001 to 0.999 |  | 0.058 |  | 0.001 to 0.999 | 0.001 to 0.999 | 0.001 to 0.99 | 0.001 to 0.999 |  |  |  |  |  |  | 
COC(=O)N[C@H](C(=O)N1CCC[C@H]1c1nc2ccc3cc(-c4ccc5c(ccc6nc([C@@H]7CCCN7C(=O)[C@H](NCC(F)(F)F)c7ccccc7)[nH]c65)c4)ccc3c2[nH]1)C(C)C [Example 403] |  | 0.001 to 0.99 | 0.001 to 0.999 |  | 0.014 |  | 0.001 to 0.999 | 0.001 to 0.999 | 0.001 to 0.99 | 0.001 to 0.999 |  |  |  |  |  |  | 
